The text below walks through data of ChEMBL document CHEMBL5696442, “Discovery of type II inhibitors of TGFβ-activated kinase 1 (TAK1) and mitogen-activated protein kinase kinase kinase kinase 2 (MAP4K2)” (J Med Chem, 2015).

SMILES strings stand for the structures. The source made the active and inactive calls. No cut-off for these calls is given here.

Assay [1] addresses Cyclin-dependent kinase 17 (Homo sapiens) (UniProt Q00537). Briefly: Inhibition of PCTAIRE2 PCTAIRE3 Lys1 labeling site in human Huh-7 cell lysate at 1 uM by KiNativ Profiling analysis relative to control. In kind it is subcellular.
In assay [2] the target is T1, Phosphorylase b kinase gamma catalytic chain, liver/testis isoform (Homo sapiens) (UniProt P15735).
T1 sequence (whole entry): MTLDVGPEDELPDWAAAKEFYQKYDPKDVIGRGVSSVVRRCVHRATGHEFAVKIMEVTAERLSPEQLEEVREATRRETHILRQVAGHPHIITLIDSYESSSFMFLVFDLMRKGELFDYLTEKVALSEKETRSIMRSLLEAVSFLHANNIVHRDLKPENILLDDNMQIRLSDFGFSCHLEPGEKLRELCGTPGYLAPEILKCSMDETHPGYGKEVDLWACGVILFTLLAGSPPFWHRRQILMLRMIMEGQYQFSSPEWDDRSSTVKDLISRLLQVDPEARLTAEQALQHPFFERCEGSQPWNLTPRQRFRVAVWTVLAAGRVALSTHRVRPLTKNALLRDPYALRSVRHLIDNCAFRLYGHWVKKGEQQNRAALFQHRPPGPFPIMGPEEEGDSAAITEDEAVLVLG
Briefly: Inhibition of PHKg2 Lys1 labeling site in human Huh-7 cell lysate at 1 uM by KiNativ Profiling analysis relative to control. Format: subcellular.

Assay [3] concerns the target Protein kinase C alpha type (Homo sapiens) (UniProt P17252). Briefly: Inhibition of PKCa Lys2 labeling site in human Huh-7 cell lysate at 1 uM by KiNativ Profiling analysis relative to control. Format: subcellular.
In assay [4] the target is Serine/threonine-protein kinase Nek6 (Homo sapiens) (UniProt Q9HC98). Briefly: Inhibition of NEK6 Lys2 labeling site harbouring VMHRDIKPANVFITATGVVK in human Huh-7 cells at 1 uM by KiNativ Profiling analysis relative to control. In kind it is cell-based.
Assay [5] addresses T2, Mitogen-activated protein kinase 13 (Homo sapiens) (UniProt O15264).
T2 sequence (whole entry): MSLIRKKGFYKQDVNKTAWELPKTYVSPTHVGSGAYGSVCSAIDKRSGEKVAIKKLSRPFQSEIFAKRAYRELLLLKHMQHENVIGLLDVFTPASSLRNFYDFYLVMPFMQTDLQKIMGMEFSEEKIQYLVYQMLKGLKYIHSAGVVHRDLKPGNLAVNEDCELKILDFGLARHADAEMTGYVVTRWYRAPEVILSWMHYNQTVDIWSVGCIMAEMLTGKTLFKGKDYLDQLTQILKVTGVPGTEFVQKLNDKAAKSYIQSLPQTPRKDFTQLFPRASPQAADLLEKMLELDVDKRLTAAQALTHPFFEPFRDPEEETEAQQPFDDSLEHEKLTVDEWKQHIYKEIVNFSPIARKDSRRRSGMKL
Briefly: Inhibition of p38delta Lys2 labeling site in human Huh-7 cells at 1 uM by KiNativ Profiling analysis relative to control. In kind it is cell-based.

For assay [6], the target named is Cyclin-dependent kinase 1 (Homo sapiens) (UniProt P06493). Briefly: Inhibition of CDC2 Lys2 labeling site harbouring VLHRDLKPQNLLIDDKGTIK in human A-375 cells at 0.5 uM by KiNativ Profiling analysis relative to control. Format: cell-based.
Assay [7] addresses MAP/microtubule affinity-regulating kinase 3 (Homo sapiens) (UniProt P27448). Briefly: Inhibition of MARK3 Lys1 labeling site in human A-375 cells at 0.5 uM by KiNativ Profiling analysis relative to control. In kind it is cell-based.
Assay [8] has as its target Serine/threonine-protein kinase pim-2 (Homo sapiens) (UniProt Q9P1W9). Briefly: Inhibition of PIM2 (unknown origin) at 1 uM by Ambit Kinomescan binding assay relative to control; values are per cent of control.
Assay [9] addresses Ephrin type-A receptor 1 (Homo sapiens) (UniProt P21709). Briefly: Inhibition of EPHA1 (unknown origin) at 1 uM by Ambit Kinomescan binding assay relative to control; values are per cent of control.
Assay [10] deals with Receptor-type tyrosine-protein kinase FLT3 (Homo sapiens), P36888 [D835Y]. Briefly: Inhibition of FLT3 D835Y mutant (unknown origin) at 10 uM by Ambit Kinomescan binding assay relative to control.
For assay [11], the target named is Tyrosine-protein kinase ITK/TSK (Homo sapiens) (UniProt Q08881). Briefly: Inhibition of ITK (unknown origin) at 10 uM by Ambit Kinomescan binding assay.
Assay [12] has as its target MAP kinase-interacting serine/threonine-protein kinase 1 (Homo sapiens) (UniProt Q9BUB5). Briefly: Inhibition of MKNK1 (unknown origin) at 10 uM by Ambit Kinomescan binding assay.
Assay [13] concerns the target Serine/threonine-protein kinase MRCK alpha (Homo sapiens) (UniProt Q5VT25). Briefly: Inhibition of MRCKA (unknown origin) at 10 uM by Ambit Kinomescan binding assay.
In assay [14] the target is Serine/threonine-protein kinase N1 (Homo sapiens) (UniProt Q16512). Briefly: Inhibition of PKN1 (unknown origin) at 10 uM by Ambit Kinomescan binding assay.
Assay [15] has as its target T3, Phosphatidylinositol 5-phosphate 4-kinase type-2 alpha (Homo sapiens) (UniProt P48426).
T3 sequence (whole entry): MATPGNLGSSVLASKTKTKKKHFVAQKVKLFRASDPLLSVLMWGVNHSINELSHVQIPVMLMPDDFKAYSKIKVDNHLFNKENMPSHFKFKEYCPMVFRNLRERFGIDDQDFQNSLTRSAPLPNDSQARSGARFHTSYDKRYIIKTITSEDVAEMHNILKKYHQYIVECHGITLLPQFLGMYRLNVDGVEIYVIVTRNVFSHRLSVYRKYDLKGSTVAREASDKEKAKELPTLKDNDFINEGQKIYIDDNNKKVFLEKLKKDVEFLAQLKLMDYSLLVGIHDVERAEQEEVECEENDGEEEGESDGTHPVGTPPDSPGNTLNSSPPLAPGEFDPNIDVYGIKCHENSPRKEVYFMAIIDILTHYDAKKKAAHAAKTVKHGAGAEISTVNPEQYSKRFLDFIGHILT
Briefly: Inhibition of PIP5K2A C2 labeling site in human Huh-7 cells at 10 uM by KiNativ Profiling analysis relative to control. Format: cell-based.

Assay [16] concerns the target Cyclin-dependent kinase 13 (Homo sapiens) (UniProt Q14004). Briefly: Inhibition of CHED K2 labeling site in human Huh-7 cells at 1 uM by KiNativ Profiling analysis relative to control. In kind it is cell-based.
The target in assay [17] is Tyrosine-protein kinase Fes/Fps (Homo sapiens, UniProt P07332). Briefly: Inhibition of FES (unknown origin) at 10 uM by Ambit Kinomescan binding assay relative to control; values are per cent of control.
Assay [18] addresses Mitogen-activated protein kinase 11 (Homo sapiens) (UniProt Q15759). Briefly: Inhibition of p38beta (unknown origin) at 10 uM by Ambit Kinomescan binding assay relative to control; values are per cent of control.

Sequence of Tyrosine-protein kinase Fes/Fps (P07332 whole entry): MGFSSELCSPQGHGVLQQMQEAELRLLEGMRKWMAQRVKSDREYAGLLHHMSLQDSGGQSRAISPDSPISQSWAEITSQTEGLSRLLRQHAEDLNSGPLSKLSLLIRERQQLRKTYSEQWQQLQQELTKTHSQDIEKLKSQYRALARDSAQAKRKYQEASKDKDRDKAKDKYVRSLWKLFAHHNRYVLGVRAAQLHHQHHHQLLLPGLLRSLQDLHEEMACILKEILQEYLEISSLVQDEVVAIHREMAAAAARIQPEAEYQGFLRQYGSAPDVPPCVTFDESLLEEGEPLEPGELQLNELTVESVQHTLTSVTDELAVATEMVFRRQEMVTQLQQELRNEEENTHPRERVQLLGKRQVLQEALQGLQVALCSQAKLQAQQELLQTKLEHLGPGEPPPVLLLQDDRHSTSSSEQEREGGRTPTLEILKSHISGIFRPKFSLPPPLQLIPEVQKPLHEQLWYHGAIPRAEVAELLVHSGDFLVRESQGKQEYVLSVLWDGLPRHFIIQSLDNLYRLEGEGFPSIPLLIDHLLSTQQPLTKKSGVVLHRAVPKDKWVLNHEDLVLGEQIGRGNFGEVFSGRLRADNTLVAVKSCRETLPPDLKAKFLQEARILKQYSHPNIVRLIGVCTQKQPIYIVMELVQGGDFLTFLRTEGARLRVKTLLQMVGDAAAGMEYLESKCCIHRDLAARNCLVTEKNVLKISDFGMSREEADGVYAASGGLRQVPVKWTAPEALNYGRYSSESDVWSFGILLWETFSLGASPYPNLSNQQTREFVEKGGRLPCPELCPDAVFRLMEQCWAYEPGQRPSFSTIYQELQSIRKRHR
Sequence of Cyclin-dependent kinase 1 (Homo sapiens) (P06493 whole entry, looked up): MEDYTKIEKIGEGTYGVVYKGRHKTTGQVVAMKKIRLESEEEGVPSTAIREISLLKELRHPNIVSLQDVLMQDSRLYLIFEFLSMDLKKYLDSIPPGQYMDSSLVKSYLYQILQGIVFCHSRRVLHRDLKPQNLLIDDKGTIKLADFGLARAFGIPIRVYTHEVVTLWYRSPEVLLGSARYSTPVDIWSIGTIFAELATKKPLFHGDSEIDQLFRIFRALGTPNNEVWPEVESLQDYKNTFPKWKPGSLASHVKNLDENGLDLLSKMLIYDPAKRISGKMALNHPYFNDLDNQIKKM
Sequence of Mitogen-activated protein kinase 11 (Homo sapiens) (Q15759 whole entry): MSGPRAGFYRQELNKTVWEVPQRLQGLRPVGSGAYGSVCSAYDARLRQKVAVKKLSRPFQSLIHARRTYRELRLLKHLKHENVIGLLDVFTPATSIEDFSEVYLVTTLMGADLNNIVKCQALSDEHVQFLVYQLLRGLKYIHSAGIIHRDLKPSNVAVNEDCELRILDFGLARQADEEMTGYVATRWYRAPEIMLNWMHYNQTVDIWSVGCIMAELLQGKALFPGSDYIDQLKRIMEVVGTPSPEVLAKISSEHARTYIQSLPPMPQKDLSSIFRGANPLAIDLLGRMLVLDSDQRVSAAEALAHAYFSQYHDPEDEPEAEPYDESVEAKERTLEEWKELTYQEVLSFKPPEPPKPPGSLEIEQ
Sequence of Cyclin-dependent kinase 13 (Homo sapiens) (Q14004 whole entry, looked up): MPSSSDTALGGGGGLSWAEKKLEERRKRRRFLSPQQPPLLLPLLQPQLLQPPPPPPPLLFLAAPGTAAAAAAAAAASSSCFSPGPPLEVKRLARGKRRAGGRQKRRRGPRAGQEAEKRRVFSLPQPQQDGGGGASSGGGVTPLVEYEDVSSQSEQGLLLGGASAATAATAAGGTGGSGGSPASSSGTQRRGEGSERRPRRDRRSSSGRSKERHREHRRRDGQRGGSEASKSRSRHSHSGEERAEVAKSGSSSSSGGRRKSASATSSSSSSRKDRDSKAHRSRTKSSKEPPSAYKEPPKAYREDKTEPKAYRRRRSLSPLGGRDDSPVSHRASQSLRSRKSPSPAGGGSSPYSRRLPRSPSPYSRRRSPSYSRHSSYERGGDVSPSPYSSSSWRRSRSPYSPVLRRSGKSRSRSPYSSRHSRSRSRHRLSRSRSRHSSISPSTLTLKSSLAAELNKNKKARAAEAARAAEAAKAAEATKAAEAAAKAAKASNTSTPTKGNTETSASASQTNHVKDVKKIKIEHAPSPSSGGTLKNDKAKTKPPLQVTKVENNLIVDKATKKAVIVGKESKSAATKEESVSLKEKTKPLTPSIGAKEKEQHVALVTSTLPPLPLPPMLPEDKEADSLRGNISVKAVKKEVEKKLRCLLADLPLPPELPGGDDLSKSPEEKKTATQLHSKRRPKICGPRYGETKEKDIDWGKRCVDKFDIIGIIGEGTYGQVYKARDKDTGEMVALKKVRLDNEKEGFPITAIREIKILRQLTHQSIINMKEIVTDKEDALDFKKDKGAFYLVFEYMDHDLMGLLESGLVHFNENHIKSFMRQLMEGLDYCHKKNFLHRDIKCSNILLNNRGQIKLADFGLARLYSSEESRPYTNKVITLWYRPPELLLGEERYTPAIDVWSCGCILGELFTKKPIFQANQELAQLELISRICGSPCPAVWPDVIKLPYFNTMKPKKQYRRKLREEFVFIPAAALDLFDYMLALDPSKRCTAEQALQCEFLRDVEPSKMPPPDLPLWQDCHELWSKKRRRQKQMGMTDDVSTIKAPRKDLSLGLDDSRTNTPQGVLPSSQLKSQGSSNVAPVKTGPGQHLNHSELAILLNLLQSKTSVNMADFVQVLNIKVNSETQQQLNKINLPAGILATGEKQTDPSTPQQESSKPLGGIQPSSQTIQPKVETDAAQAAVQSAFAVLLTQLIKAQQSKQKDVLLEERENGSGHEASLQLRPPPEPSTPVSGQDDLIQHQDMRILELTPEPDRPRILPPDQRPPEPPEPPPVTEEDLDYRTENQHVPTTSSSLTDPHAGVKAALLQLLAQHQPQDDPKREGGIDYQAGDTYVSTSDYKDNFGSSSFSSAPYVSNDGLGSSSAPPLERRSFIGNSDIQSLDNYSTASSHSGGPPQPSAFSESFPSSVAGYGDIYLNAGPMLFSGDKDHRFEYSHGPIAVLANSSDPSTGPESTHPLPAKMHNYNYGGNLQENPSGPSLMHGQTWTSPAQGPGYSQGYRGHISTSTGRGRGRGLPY
Sequence of Serine/threonine-protein kinase N1 (Homo sapiens) (Q16512 2-942 limits assumed): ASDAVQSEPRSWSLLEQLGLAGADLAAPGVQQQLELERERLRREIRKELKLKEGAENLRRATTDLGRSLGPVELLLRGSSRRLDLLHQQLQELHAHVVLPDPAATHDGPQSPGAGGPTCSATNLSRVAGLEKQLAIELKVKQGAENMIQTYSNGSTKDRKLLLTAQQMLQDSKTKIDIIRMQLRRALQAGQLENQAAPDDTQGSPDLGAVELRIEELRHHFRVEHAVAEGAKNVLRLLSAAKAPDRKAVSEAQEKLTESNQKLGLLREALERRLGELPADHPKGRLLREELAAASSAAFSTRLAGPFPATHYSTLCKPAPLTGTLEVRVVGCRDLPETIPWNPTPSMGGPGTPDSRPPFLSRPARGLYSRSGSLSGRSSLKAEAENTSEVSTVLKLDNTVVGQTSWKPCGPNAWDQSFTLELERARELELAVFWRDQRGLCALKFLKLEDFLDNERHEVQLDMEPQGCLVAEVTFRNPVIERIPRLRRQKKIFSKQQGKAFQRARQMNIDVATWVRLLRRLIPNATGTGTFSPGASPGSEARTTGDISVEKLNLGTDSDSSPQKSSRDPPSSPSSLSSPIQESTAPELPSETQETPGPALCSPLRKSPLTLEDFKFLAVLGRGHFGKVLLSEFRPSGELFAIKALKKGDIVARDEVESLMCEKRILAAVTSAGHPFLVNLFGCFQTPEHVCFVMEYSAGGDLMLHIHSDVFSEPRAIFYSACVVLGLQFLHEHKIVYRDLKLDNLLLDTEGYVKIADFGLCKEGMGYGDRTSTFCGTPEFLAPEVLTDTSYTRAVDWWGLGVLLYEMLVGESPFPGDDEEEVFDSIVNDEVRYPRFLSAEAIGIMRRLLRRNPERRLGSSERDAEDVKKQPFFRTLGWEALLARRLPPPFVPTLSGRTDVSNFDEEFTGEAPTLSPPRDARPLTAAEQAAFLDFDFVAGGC
Sequence of MAP/microtubule affinity-regulating kinase 3 (Homo sapiens) (P27448 whole entry, looked up): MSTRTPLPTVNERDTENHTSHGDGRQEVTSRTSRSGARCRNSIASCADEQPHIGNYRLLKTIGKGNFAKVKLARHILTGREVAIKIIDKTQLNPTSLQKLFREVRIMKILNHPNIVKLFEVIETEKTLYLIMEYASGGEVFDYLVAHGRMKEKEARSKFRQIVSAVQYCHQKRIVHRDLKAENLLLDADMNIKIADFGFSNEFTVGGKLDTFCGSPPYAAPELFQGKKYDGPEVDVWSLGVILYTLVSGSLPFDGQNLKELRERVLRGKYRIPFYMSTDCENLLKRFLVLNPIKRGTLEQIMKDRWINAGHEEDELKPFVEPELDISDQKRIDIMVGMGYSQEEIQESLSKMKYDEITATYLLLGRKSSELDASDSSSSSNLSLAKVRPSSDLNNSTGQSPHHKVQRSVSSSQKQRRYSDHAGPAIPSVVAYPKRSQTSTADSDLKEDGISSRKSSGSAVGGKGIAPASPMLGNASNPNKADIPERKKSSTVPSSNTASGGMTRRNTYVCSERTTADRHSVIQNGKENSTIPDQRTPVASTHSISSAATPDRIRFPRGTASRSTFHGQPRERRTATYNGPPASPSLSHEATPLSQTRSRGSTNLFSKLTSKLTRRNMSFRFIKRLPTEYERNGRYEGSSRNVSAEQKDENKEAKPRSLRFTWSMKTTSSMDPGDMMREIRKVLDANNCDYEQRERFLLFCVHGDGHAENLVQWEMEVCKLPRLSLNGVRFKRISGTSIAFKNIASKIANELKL
Sequence of Serine/threonine-protein kinase pim-2 (Homo sapiens) (Q9P1W9 whole entry, looked up): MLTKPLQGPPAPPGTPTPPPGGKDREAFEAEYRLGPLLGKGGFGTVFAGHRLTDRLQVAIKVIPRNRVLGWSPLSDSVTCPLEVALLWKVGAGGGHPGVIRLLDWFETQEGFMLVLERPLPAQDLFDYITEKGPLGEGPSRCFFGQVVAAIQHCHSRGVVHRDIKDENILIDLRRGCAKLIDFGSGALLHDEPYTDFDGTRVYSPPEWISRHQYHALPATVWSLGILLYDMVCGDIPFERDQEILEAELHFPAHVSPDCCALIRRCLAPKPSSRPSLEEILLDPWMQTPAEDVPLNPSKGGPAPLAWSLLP

For the compound `CNc1cc(Oc2cc(C(=O)Nc3cc(N4CCN(C)CC4)cc(C(F)(F)F)c3)ccc2C)ncn1`, the inhibition was -9.5% in assay [1]; 0.2% in assay [2]; -1.2% in assay [3]; 6.9% in assay [4]; 13% in [5].

Turning to `CCN1CCN(Cc2ccc(NC(=O)c3ccc(C)c(/C=C/c4cnc5[nH]ccc5c4OC)c3)cc2C(F)(F)F)CC1`, the inhibition in assay [6] was 5.8%; in assay [7] it was 12.3%. Moreover, the residual activity in assay [8] is 100%; in assay [9], 16%.

`CCN1CCN(Cc2ccc(NC(=O)c3ccc(C)c(Oc4ccnc5[nH]ccc45)c3)cc2C(F)(F)F)CC1`: the inhibition in assay [10] amounted to 14%; in assay [15], 1.3%. Besides, the inhibition entry in [11], in [12], in [13], in assay [14] and in [16] was “inactive” in each case. The values for the percent of control in assay [17] and in assay [18] were 2.2% and 0%, respectively.
